The source made the active and inactive calls. The rule behind the calls is not given here.

Data set [1] concerns the target T1, 72 kDa type IV collagenase (Homo sapiens, UniProt P08253). Nature of the data set: Inhibition of recombinant human MMP2 (110 to 452 residues) using Mca-Pro-Leu-Gly-Leu-Dpa-Ala-Arg-NH2 expressed in yeast expression system as substrate incubated for 15 mins followed by substrate addition and measured after 2 to 4 hrs by fluorescence based assay.
Target sequence in this assay (P08253 whole entry, the tested form may be a part): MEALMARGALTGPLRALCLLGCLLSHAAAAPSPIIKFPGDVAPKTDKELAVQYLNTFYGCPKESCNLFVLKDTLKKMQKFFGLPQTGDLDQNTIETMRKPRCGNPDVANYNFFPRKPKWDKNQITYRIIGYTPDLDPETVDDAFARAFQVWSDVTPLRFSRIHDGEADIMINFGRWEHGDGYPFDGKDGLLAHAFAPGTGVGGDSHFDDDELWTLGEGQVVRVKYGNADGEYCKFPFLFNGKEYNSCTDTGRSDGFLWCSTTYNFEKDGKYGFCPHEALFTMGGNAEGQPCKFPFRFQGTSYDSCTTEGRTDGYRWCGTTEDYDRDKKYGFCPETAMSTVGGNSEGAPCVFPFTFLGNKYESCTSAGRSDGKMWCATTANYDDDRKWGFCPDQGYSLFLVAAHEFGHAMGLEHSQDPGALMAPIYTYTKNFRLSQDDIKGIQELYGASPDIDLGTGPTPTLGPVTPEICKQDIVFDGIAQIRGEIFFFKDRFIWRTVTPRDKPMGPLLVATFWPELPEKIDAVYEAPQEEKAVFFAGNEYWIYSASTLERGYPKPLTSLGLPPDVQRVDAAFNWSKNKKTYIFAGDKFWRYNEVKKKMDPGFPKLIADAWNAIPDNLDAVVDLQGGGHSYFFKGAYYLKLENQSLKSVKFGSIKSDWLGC
In data set [2] the target is T2, Neutrophil collagenase (Homo sapiens, UniProt P22894). Nature of the data set: Inhibition of recombinant human MMP8 (99 to 269 residues) using Mca-Pro-Leu-Gly-Leu-Dpa-Ala-Arg-NH2 expressed in Escherichia coli expression system as substrate incubated for 15 mins followed by substrate addition and measured after 2 to 4 hrs by fluorescence based assay.
Target sequence in this assay (P22894 whole entry, the tested form may be a part): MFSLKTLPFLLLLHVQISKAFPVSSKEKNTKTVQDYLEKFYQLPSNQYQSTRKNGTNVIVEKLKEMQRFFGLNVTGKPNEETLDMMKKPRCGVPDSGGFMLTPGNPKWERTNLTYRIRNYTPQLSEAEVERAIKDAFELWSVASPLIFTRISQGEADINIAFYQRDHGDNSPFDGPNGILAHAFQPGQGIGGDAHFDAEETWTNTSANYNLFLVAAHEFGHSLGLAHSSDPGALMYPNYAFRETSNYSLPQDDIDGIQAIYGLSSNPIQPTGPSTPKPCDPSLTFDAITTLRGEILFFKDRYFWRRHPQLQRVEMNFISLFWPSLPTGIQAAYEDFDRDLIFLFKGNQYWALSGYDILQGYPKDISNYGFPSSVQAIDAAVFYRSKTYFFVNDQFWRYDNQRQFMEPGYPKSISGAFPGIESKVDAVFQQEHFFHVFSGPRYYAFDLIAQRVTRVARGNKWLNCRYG
In data set [3] the target is T3, Matrix metalloproteinase-9 (Homo sapiens, UniProt P14780). Briefly: Inhibition of recombinant human MMP9 (107 to 449 residues) using Mca-Pro-Leu-Gly-Leu-Dpa-Ala-Arg-NH2 expressed in Escherichia coli expression system as substrate incubated for 15 mins followed by substrate addition and measured after 2 to 4 hrs by fluorescence based assay.
The target in data set [4] is T4, Collagenase 3 (Homo sapiens, UniProt P45452). Nature of the data set: Inhibition of recombinant human MMP13 (104 to 274 residues) using Mca-Pro-Leu-Gly-Leu-Dpa-Ala-Arg-NH2 expressed in Escherichia coli expression system as substrate incubated for 15 mins followed by substrate addition and measured after 2 to 4 hrs by fluorescence based assay.
Data set [5] has as its target T1, 72 kDa type IV collagenase. Briefly: Non-competitive inhibition of recombinant human MMP2 (110 to 452 residues) using Mca-Pro-Leu-Gly-Leu-Dpa-Ala-Arg-NH2 expressed in yeast expression system as substrate incubated for 15 mins followed by substrate addition and measured after 2 to 4 hrs by fluorescence based assay. To be noted: time 2-4.25 hrs.
Target sequence in this assay (P08253 110-660 limits assumed): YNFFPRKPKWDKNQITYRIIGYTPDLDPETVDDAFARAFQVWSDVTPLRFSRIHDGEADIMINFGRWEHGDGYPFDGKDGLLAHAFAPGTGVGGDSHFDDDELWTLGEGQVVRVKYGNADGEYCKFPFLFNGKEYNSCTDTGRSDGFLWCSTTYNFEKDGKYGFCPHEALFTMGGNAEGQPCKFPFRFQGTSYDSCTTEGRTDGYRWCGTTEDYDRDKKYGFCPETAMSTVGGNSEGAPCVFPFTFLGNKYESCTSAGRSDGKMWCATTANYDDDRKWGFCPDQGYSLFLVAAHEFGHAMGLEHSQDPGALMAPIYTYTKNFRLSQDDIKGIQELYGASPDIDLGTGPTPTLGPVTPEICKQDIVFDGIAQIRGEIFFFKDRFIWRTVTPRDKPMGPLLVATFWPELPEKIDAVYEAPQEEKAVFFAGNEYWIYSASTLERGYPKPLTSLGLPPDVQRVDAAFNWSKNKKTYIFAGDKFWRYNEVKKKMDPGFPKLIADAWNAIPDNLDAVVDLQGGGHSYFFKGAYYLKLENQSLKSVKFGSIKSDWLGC
Data set [6] has as its target T2, Neutrophil collagenase. Briefly: Non-competitive inhibition of recombinant human MMP8 (99 to 269 residues) using Mca-Pro-Leu-Gly-Leu-Dpa-Ala-Arg-NH2 expressed in Escherichia coli expression system as substrate incubated for 15 mins followed by substrate addition and measured after 2 to 4 hrs by fluorescence based assay. The following applies: time 2-4.25 hrs.
Target sequence in this assay (P22894 101-467 limits assumed): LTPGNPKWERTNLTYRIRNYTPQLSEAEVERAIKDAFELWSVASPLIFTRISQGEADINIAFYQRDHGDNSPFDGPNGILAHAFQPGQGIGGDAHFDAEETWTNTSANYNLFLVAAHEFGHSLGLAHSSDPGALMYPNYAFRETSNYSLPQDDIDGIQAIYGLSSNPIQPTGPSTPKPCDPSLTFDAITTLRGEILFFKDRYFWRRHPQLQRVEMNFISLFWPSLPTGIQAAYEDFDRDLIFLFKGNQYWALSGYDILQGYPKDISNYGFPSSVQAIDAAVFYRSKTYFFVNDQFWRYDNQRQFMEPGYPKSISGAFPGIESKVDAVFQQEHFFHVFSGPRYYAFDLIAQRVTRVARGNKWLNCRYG
Data set [7] has as its target T3, Matrix metalloproteinase-9. Nature of the data set: Non-competitive inhibition of recombinant human MMP9 (107 to 449 residues) using Mca-Pro-Leu-Gly-Leu-Dpa-Ala-Arg-NH2 expressed in Escherichia coli expression system as substrate incubated for 15 mins followed by substrate addition and measured after 2 to 4 hrs by fluorescence based assay. To be noted: time 2-4.25 hrs.

In data set [8] the target is T4, Collagenase 3. Briefly: Non-competitive inhibition of recombinant human MMP13 (104 to 274 residues) using Mca-Pro-Leu-Gly-Leu-Dpa-Ala-Arg-NH2 expressed in Escherichia coli expression system as substrate incubated for 15 mins followed by substrate addition and measured after 2 to 4 hrs by fluorescence based assay. The following applies: time 2-4.25 hrs.
A short description of data set [9]: Cytotoxicity against mouse SN-56 cells assessed as reduction in cell viability upto 100 uM incubated for 24 hrs by MTT assay. To be noted: sn-56, 24 h. The data set is classed as cell-based.
The test system of data set [10] is SN-56. Briefly: Neuroprotective activity against H2O2-induced lipid peroxidation in mouse SN-56 cells assessed as increase in MDA level incubated for 24 hrs by lipid peroxidation MDA assay kit method. The data set is classed as functional, cell-based.
A short description of data set [11]: Neuroprotective activity against H2O2-induced lipid peroxidation in mouse SN-56 cells assessed as increase in MDA level at 1 to 150 uM incubated for 24 hrs by lipid peroxidation MDA assay kit method relative to control. The class given is functional. To be noted: dose 1-150 µM.
The subject of data set [12] is SN-56. Nature of the data set: Neuroprotective activity against H2O2-induced cytotoxicity in mouse SN-56 cells assessed as increase in cell viability at 10 to 100 uM incubated for 24 hrs by MTT assay. The class given is functional, cell-based. The following applies: dose 10-100 µM.
Data set [13] concerns the target T1, 72 kDa type IV collagenase. Nature of the data set: Non-competitive inhibition of recombinant human MMP2 (110 to 452 residues) using Mca-Pro-Leu-Gly-Leu-Dpa-Ala-Arg-NH2 expressed in yeast expression system as substrate by fluorescence based Michaelis-Menten analysis. The following applies: time 2-4 hrs.
Target sequence in this assay (P08253 110-660 limits assumed): as the sequence (P08253 110-660 limits assumed) above
Data set [14] has as its target T2, Neutrophil collagenase. Nature of the data set: Non-competitive inhibition of recombinant human MMP8 (99 to 269 residues) using Mca-Pro-Leu-Gly-Leu-Dpa-Ala-Arg-NH2 expressed in Escherichia coli expression system as substrate by substrate by fluorescence based Michaelis-Menten analysis. To be noted: time 2-4 hrs.
Target sequence in this assay (P22894 101-467 limits assumed): as the sequence (P22894 101-467 limits assumed) above
Data set [15] has as its target T3, Matrix metalloproteinase-9. Briefly: Non-competitive inhibition of recombinant human MMP9 (107 to 449 residues) using Mca-Pro-Leu-Gly-Leu-Dpa-Ala-Arg-NH2 expressed in Escherichia coli expression system as substrate by substrate by fluorescence based Michaelis-Menten analysis. The following applies: time 2-4 hrs.
For data set [16], the target named is T4, Collagenase 3. Nature of the data set: Non-competitive inhibition of recombinant human MMP13 (104 to 274 residues) using Mca-Pro-Leu-Gly-Leu-Dpa-Ala-Arg-NH2 expressed in Escherichia coli expression system as substrate by fluorescence based Michaelis-Menten analysis assay. To be noted: time 2-4 hrs.
The target in data set [17] is T1, 72 kDa type IV collagenase. Briefly: Non-competitive inhibition of recombinant human MMP2 (110 to 452 residues) using Mca-Pro-Leu-Gly-Leu-Dpa-Ala-Arg-NH2 expressed in yeast expression system as substrate by fluorescence based Lineweaver-Burk plot. To be noted: time 2-4 hrs.
Target sequence in this assay (P08253 110-660 limits assumed): as the sequence (P08253 110-660 limits assumed) above
For data set [18], the target named is T2, Neutrophil collagenase. Nature of the data set: Non-competitive inhibition of recombinant human MMP8 (99 to 269 residues) using Mca-Pro-Leu-Gly-Leu-Dpa-Ala-Arg-NH2 expressed in Escherichia coli expression system as substrate by substrate by fluorescence based Lineweaver-Burk plot. The following applies: time 2-4 hrs.
Target sequence in this assay (P22894 101-467 limits assumed): as the sequence (P22894 101-467 limits assumed) above
For data set [19], the target named is T3, Matrix metalloproteinase-9. Nature of the data set: Non-competitive inhibition of recombinant human MMP9 (107 to 449 residues) using Mca-Pro-Leu-Gly-Leu-Dpa-Ala-Arg-NH2 expressed in Escherichia coli expression system as substrate by substrate by fluorescence based Lineweaver-Burk plot. The following applies: time 2-4 hrs.
Data set [20] addresses T4, Collagenase 3. Briefly: Non-competitive inhibition of recombinant human MMP13 (104 to 274 residues) using Mca-Pro-Leu-Gly-Leu-Dpa-Ala-Arg-NH2 expressed in Escherichia coli expression system as substrate by fluorescence based Lineweaver-Burk plot assay. The following applies: time 2-4 hrs.
Data set [21] has as its target T1, 72 kDa type IV collagenase. Nature of the data set: Non-competitive inhibition of recombinant human MMP2 (110 to 452 residues) using Mca-Pro-Leu-Gly-Leu-Dpa-Ala-Arg-NH2 expressed in yeast expression system as substrate by fluorescence based Dixon plot. To be noted: time 2-4 hrs.
Target sequence in this assay (P08253 110-660 limits assumed): as the sequence (P08253 110-660 limits assumed) above
For data set [22], the target named is T2, Neutrophil collagenase. Briefly: Non-competitive inhibition of recombinant human MMP8 (99 to 269 residues) using Mca-Pro-Leu-Gly-Leu-Dpa-Ala-Arg-NH2 expressed in Escherichia coli expression system as substrate by substrate by fluorescence based Dixon plot. To be noted: time 2-4 hrs.
Target sequence in this assay (P22894 101-467 limits assumed): as the sequence (P22894 101-467 limits assumed) above
Data set [23] deals with T3, Matrix metalloproteinase-9. Nature of the data set: Non-competitive inhibition of recombinant human MMP9 (107 to 449 residues) using Mca-Pro-Leu-Gly-Leu-Dpa-Ala-Arg-NH2 expressed in Escherichia coli expression system as substrate by substrate by fluorescence based Dixon plot. To be noted: time 2-4 hrs.
Data set [24] has as its target T4, Collagenase 3. Briefly: Non-competitive inhibition of recombinant human MMP13 (104 to 274 residues) using Mca-Pro-Leu-Gly-Leu-Dpa-Ala-Arg-NH2 expressed in Escherichia coli expression system as substrate by fluorescence based Dixon plot assay. The following applies: time 2-4 hrs.

T3 sequence (P14780 whole entry, the tested form may be a part): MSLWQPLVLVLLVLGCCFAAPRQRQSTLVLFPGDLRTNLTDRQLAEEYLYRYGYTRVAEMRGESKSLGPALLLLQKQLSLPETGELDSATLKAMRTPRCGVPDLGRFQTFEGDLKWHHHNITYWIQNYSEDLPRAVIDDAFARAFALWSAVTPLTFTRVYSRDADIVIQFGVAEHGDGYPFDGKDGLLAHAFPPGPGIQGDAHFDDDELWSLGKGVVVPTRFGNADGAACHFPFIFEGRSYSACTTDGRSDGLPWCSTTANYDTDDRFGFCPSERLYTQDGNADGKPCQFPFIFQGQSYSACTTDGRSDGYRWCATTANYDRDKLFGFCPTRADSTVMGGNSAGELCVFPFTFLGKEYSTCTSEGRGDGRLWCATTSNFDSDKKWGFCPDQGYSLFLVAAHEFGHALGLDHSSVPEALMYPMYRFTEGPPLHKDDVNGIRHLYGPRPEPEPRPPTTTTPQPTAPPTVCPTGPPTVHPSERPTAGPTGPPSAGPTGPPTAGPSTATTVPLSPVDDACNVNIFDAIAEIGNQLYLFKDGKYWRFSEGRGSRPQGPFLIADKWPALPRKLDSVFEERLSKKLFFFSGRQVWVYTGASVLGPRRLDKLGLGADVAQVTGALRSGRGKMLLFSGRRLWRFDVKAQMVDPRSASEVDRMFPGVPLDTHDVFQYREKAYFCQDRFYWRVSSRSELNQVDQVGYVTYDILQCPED

With `COc1ccc(Nc2cc(-c3cccs3)cc3c2c(=O)[nH]c2ccccc23)cc1`, the IC50 is 6.05 µM in [1], 7 µM at Neutrophil collagenase [2], 5 µM in data set [3] and 5.4 µM at Collagenase 3 [4]. Moreover, the inhibition entry (in data set [5]; at Neutrophil collagenase [6]; in data set [7]; at Collagenase 3 [8]) was “Active” each time. Also, the Activity result in data set [9] is “Non-Toxic”; in the data set with SN-56 [10] it was “Dose-dependent effect”; in data set [11], 100%. Further, the outcome (with SN-56 [12]; in data set [13]; on Neutrophil collagenase [14]; in [15]; on Collagenase 3 [16]; in [17]) was Active. In addition, the outcome (at Neutrophil collagenase [18]; in data set [19]; on Collagenase 3 [20]; in [21]; on Neutrophil collagenase [22]; in data set [23]) was Active. The result on Collagenase 3 [24] was Active.

The values are drawn from ChEMBL document CHEMBL4732123, “Discovery of 7-aminophenanthridin-6-one as a new scaffold for matrix metalloproteinase inhibitors with multitarget neuroprotective activity” (Eur J Med Chem, 2021).
